Assay results reported in patent publication US7923429B2, “Treatment for CD5+ B cell lymphoma” (3M Innovative Properties Company, priority 2003, dated 2011).

Legend:
CLL cells [1] = assay: Costimulatory molecule expression by activated CLL cells (flow cytometry); type: cell-based, human
Procedure: Blood samples: Heparinized blood (30-40 mL) was collected from consenting CLL patients (diagnosed by a persistent elevation of CD19^+CD5^+ IgM^lo lymphocytes (Rozman and Montserrat, New Engl. J. Med. 1995; 333:1052-1057)). All patients were untreated at the time of analysis. Protocols were approved by the appropriate Institutional Review Board.
Cell purification: CLL and T cells were isolated from fresh blood by negative selection (RosetteSep, StemCell Technologies, Vancouver, BC) as described by Gitelson et al. (Gitelson et al., Clin. Cancer Res. 2003; 99:1656-1665).
Activation of CLL cells: Purified CLL cells (1.5×10^6 cells/mL) were cultured in serum-free AIM-V medium plus 2-mercaptoethanol (2-ME, 5×10^−5 M) (Sigma Chemical Co.) in 6- or 24-well plates (Becton-Dickinson Labware, Franklin Lake, N.J.) for 3-4 days at 37° C. in 5% CO2. CLL cells were activated by adding the Negative Control compound (1 μg/mL), IRM1 (1 μg/mL), IL-2 (5000 U/mL), PDB (100 ng/mL), or bryostatin ([…]), as appropriate.
Flow cytometry: Cell staining was performed as described by Gitelson et al. (Gitelson et al., Clin. Cancer Res. 2003; 99:1656-1665).
CLL cells from the indicated number of patients were cultured in IRM1 (1 μg/mL) for 3-4 days, and then assayed for expression of the costimulatory molecules indicated on the x-axis (at an intensity greater than the first decade of log fluorescence) of FIG. 1A. The percentage of cells that expressed each costimulatory molecule and the mean fluorescence intensity (MFI) of expression were measured by flow cytometry. The “fold-increase” was then calculated from the ratio of these measurements to the percentage and MFI of control cells cultured without activating agents. […]
CLL cells were isolated and cultured alone or with IL-2 (5000 U/mL), IRM1 (1 μg/mL), or both IL-2 and IRM1 for 3-4 days. The expression of CD80, CD86, CD54, and CD83 was then determined by flow cytometry.
CD80, CD83, CD54, and CD86 expression were then determined by flow cytometry.

CLL cells [2] = assay: Elimination of CLL cells by autologous T cells in co-culture; type: cell-based, human; conditions: alone or in combination with IL-2 and/or bryostatin; 1:1 CLL:T cells, 5 days
Procedure: CLL cells and T cells were isolated from a CLL patient, suspended at concentrations of 10^6 cells/mL and mixed in a 1:1 ratio. The cell mixtures were cultured alone, or in the presence of IL-2, IL-2 and IRM1, bryostatin, bryostatin and IL-2, bryostatin and IRM1, or bryostatin, IL-2, and IRM1. In FIG. 5A, after 5 days, the percentages of CD5^+ CD19^+ tumor cells (indicated by the numbers in the right upper quadrants of the dot-plots) and CD5^+ CD19^− T cells were determined by flow cytometry. In FIG. 5B, these percentages and the total numbers of viable cells (determined by manual counting in a hemocytometer) were used to calculate the remaining absolute numbers of CLL cells in the cultures.

[3] = tested on: lymphomatous skin deposits associated with chronic lymphocytic leukemia; assay: Topical treatment of lymphomatous skin deposits in a CLL patient; type: in vivo, human; conditions: topical IRM2; count at beginning 36×10^6 cells/mL
Text: A person was diagnosed with Rai Stage 0 CLL on the basis of a persistent elevated count of circulating monoclonal CD19^+ CD5^+ IgM^lo lymphocytes, determined by flow cytometry. CD38 was expressed by 45% of circulating CLL cells. The white blood cell counts at the beginning and end of treatment with IRM2 were 36×10^6 cells/mL and 45×10^5 cells/mL, respectively. Other systemic chemotherapy, steroids, or radiation had not been administered previously.
Additionally, the patient reported having recurrent nodular, erythematous lesions on their hands and arms for approximately eight years. The lesions were usually removed by treatment with liquid nitrogen. At the time they were diagnosed with CLL, they had several such lesions over their upper back (FIG. 8A) and arms. One lesion was biopsied and found to contain a diffuse atypical lymphoid dermal infiltrate consisting of many small, round lymphocytes, without epidermotropism.
A 5% cream of IRM2 was applied to the affected area three times per week.
Administration of 5% IRM2 cream was increased to once per day.

[4] = tested on: T cells from CLL patients; assay: Mixed lymphocyte response: T cell proliferation stimulated by activated, irradiated CLL cells; type: cell-based, human; conditions: CLL cells activated 3-4 days, MLR 5-6 days, alamar blue
Text: Mixed Lymphocyte Responses (MLRs): T cells were isolated from CLL patients and adjusted to 5×10^5 cells/mL in AIM-V medium. Activated CLL cells were washed at least 4 times to remove residual immunomodulators, irradiated (2500 cGy) and suspended at 5×10^5 cells/mL (or lower concentrations) in AIM-V. Responders and stimulators were then mixed in a 1:1 (vol:vol) ratio and cultured in 96-well round bottom plates (Becton Dickinson Labware, Franklin Lake, N.J.) without additional cytokines or serum. Proliferation was measured 4-6 days later using a colorimetric assay (Gitelson et al., Clin Cancer Res. 2003; 99:1656-1665; and Ahmed et al., J. Immunol. Methods. 1994; 170:211-224).
CLL cells were purified from individual patients and cultured alone or with IL-2, IRM1, IL-2 and IRM1, PDB, PDB and IL-2, PDB and IRM1, or PDB, IL-2, and IRM1. After 3-4 days, these cells were harvested, washed extensively, irradiated (2500 cGy) and used to stimulate allogenic or autologous T cells from CLL patients (obtained at the same time as the CLL cells and rested in culture until added to the Mixed Lymphocytic Response (MLR) assay) after 5-6 days of culture, alamar blue was added and proliferation was measured in an optical density calorimetric microplate reader at wavelengths of 540 (reduced state) and 595 (oxidized state). […]

In the case of `CCOCc1nc2c(N)nc3c(c2n1CC(C)(C)O)CCCC3.O` [IRM1, 4-amino-2-(ethoxymethyl)-α,α-dimethyl-6,7,8,9-tetrahydro-1H-imidazo[4,5-c]quinoline-1-ethanol hydrate], the “dependence of ICOS-L expression on signaling” value (CLL cells [1]; IL-2 5000 U/mL, IRM1 1 μg/mL) is reported as “relatively independent”, the “expression of 4-1BBL and PDL-1” value (CLL cells [1]; IL-2 5000 U/mL, IRM1 1 μg/mL, less than CD80, CD86, CD54) is reported as “increased somewhat” and the “effect on CD80 compared with effect on CD86” value (CLL cells [1]; IRM1 1 μg/mL) is reported as “greater”. The “potency as single agent in increasing CD80 and CD86 expression, relative to IL-2” value (CLL cells [1]; IRM1 1 μg/mL vs IL-2 5000 U/mL, 3-4 days) was “more potent than IL-2”, the “CD80, CD86, and CD54 expression” value (CLL cells [1]; IRM1 1 μg/mL, 3-4 days) was “especially strong effects” and the ICOS-L expression (CLL cells [1]; IRM1 1 μg/mL, 3-4 days) was “little effect”. For the same compound, the “MFI of CD80, CD86, CD54, and CD83” value (CLL cells [1]; IRM1 1 μg/mL, 3-4 days) was “increased the expression of all four”, the “expression of CD83, 4-1BBL, and PDL-1” value (CLL cells [1]; IRM1 1 μg/mL, 3-4 days) was “increased” and the “patients whose CLL cells showed increased expression of CD54, CD80, and CD86” value (CLL cells [1]; IRM1 1 μg/mL, 3-4 days, n=31) was “all patients studied”. The “percentage of CLL cells that expressed CD80 and CD86, and MFI of expression” value (CLL cells [1]; single agent, IL-2 5000 U/mL or IRM1 1 μg/mL, 3-4 days) was “increased” and the “killing of CLL cells by autologous T cells in vitro” value (CLL cells [2]) was “induced autologous T cells to kill CLL cells”.

`CC(C)Cn1cnc2c(N)nc3ccccc3c21` [IRM2, 1-(2-methylpropyl)-1H-imidazo[4,5-c]quinolin-4-amine] was tested, and the “white blood cell count at end of treatment” value [3] was 45×10^5 cells/mL.

`CC(C)Cn1cnc2c(O)nc3ccccc3c21` [Negative Control, 4-hydroxy-1-isobutyl-1H-imidazo[4,5-c]quinoline, reference compound] was tested, and the “effects on CLL cells” value (CLL cells [1]; 1 μg/mL, 3-4 days culture) was “did not have measurable effects”.

With `CCCC(=O)O[C@@H]1[C@@H](C)[C@@]2(O)[C@@H](C=C(CO)C[C@]3(O)C(=O)C(C)=C[C@@H]23)[C@@H]2C(C)(C)[C@]12OC(=O)CCC` [PDB, Phorbol dibutyrate, reference compound] the “ability of activated CLL cells to stimulate T cell proliferation” value [4] was “weak stimulators”, the “CD54 and ICOS-L expression” value (CLL cells [1]; PDB alone, 100 ng/mL) was “not affected greatly” and the “expression of 4-1BBL and PDL-1” value (CLL cells [1]; PDB alone, 100 ng/mL) was “increased”. The “CLL cells expressing CD83” value (CLL cells [1]; PDB alone, 100 ng/mL, 3-4 days) was about 90% and the “number of CD80+ and CD86+ CLL cells” value (CLL cells [1]; PDB alone, 100 ng/mL, CD86+ more than CD80+) was “increased”.

poly (I:C) [reference compound] was tested, and the “costimulatory molecule expression (CD80, CD86) by CLL cells” value (CLL cells [1]; 100 μg/mL, 48 hours) was “rarely affected”.
